We go through 5 molecules from patent publication US20230278984A1 (Global Blood Therapeutics, Inc., priority 2020, published 2023).

Experiment [1] deals with mouse model of beta-thalassemia. The note with it: cited from earlier work.
Experiment [2] has as its target T1, Human pyruvate kinase R (PKR) (Homo sapiens, UniProt P30613).
T1 construct: Human pyruvate kinase R (PKR), residues 14-574; 6x-His (N, cleaved yes); 8x-Arg (N, cleaved yes); SUMO (N, cleaved yes); host or cells: E. coli
As to the kind of experiment: Biochemical assay for activation of pyruvate kinase R (Kinase-Glo luminescence measurement of ATP generation). The note with it: for AC50: PKR biochemical assay, 0.1 nM PKR, 0.3 mM ADP, 2 mM FBP, 0.1 mM PEP; for Emax: maximal activation level relative to the activation level achieved by the literature compound AG-348 @ 10 μM. In a few lines: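 Recombinant human PKR (residues 14-574), E. coli-expressed with His-Arg-SUMO tag removed, purified by Ni-NTA, anion exchange and size exclusion. Activation measured as ATP generation via Kinase-Glo luminescence.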

T1 sequence (P30613 14-574): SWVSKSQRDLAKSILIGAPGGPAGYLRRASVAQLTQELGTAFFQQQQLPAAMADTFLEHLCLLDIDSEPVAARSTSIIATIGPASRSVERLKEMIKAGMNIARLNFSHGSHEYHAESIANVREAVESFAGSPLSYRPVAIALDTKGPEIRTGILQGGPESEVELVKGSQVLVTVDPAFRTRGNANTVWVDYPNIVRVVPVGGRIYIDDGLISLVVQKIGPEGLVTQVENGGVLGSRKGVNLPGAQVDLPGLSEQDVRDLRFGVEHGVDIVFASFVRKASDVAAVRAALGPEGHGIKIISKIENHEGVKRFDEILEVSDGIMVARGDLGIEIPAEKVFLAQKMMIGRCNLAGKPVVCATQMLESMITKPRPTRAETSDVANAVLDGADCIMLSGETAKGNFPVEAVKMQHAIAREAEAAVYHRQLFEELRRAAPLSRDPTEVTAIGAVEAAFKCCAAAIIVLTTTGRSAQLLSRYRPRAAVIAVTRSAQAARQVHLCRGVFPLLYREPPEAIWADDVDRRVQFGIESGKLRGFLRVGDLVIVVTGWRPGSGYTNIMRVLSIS

Turning to `O=C(c1ccc(NS(=O)(=O)c2cccc3cccnc23)cc1)N1CCN(CC2CC2)CC1` [AG-348, Mitapivat], in experiment [1], the “PK activity, ATP levels and RBC parameters” value was “increased PK activity and ATP levels, as well as improved RBC parameters”.
In experiment [2], `CCN(Cc1ncnn1-c1cnc2ccccc2c1)C(=O)NCc1nc(C)nn1-c1ccc(Cl)c(F)c1` [Compound 142, 1-{[1-(4-chloro-3-fluorophenyl)-3-methyl-1H-1,2,4-triazol-5-yl]methyl}-3-ethyl-3-{[1-(quinolin-3-yl)-1H-1,2,4-triazol-5-yl]methyl}urea] returned a concentration at half-maximal activity (AC50) of 250 nM and an Emax of 127%.
The corresponding values for `CCN(Cc1ncnn1-c1ccc(Cl)c(F)c1)C(=O)NCc1nc(C)nn1-c1cnc2ccccc2c1` [Compound 143, 1-{[1-(4-chloro-3-fluorophenyl)-1H-1,2,4-triazol-5-yl]methyl}-1-ethyl-3-{[3-methyl-1-(quinolin-3-yl)-1H-1,2,4-triazol-5-yl]methyl}urea] are 140 nM and 112%.
In experiment [2], `Cc1nc(CNC(=O)NCc2ncnn2-c2ccc(Cl)c(F)c2)n(-c2cnc3ccccc3c2)n1` [Compound 144, 1-{[1-(4-chloro-3-fluorophenyl)-1H-1,2,4-triazol-5-yl]methyl}-3-{[3-methyl-1-(quinolin-3-yl)-1H-1,2,4-triazol-5-yl]methyl}urea] came in with an AC50 of 27 nM and an Emax of 94%.
The corresponding values for `O=C(NCc1ncnn1-c1ccc(Cl)c(F)c1)NCc1ncnn1-c1cnc2cc(F)ccc2c1` [Compound 145, 1-{[1-(4-chloro-3-fluorophenyl)-1H-1,2,4-triazol-5-yl]methyl}-3-{[1-(7-fluoroquinolin-3-yl)-1H-1,2,4-triazol-5-yl]methyl}urea] are 51 nM and 76%.
